According to patent US10392422B2, “Macrocyclic broad spectrum antibiotics” (priority 2014, dated 2019):
Values after ≈ are worked out from the molar mass of the structure shown. Like-named read-outs stand apart in the source and are kept apart here.

How the values were obtained:
Experiment in all cases: MIC, broth micro-dilution technique (CLSI)
[1] = test system: Methicillin Resistant Staphylococcus aureus strain USA 300 (NRS384); format: cell-based; settings: for MIC: Staphylococcus aureus, 22 h, read-out: MIC (μg/mL) S. aureus
Summary of the method: (§1)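 CLSI broth microdilution in cation-adjusted Mueller Hinton broth with 0.002% v/v Tween-80. Compounds were serially 2-fold diluted over 10 concentrations from 64 μg/ml, or from 4 μg/mL in a modified protocol; inoculum at final OD600 0.0005, incubated 35° C for 22 hours.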

[2] = test system: Escherichia coli MC4100 harboring the IMP4213; format: cell-based; settings: 35° C., 22 hours; for MIC: Escherichia coli, 22 h
Summary of the method: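 Susceptibility is tested by broth micro-dilution per CLSI, using ten serial 2-fold dilutions beginning at 64 μg/ml or, in a modified version, 4 μg/mL. The E. coli MC4100 strain carries an imp allele raising outer-membrane permeability.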

MRSA COL (NRS100) = format: cell-based, Staphylococcus aureus; settings: for MIC: Staphylococcus aureus, 22 h, read-out: MIC (μg/mL) (COL)
Summary of the method: as §1

[3] = read-out: MIC (μg/mL) E. coli, Table 1 protocol: serial 2-fold dilutions starting from 64 μg/ml
[4] = read-out: MIC (μg/mL) E. coli, Table 2 modified protocol: serial 2-fold dilutions starting from 4 μg/mL
[5] = Table 1 protocol: serial 2-fold dilutions starting from 64 μg/ml, 35° C., 22 hours

Row | Compound | MIC [1] [µg/mL] | MIC [2, 3] [µg/mL] | MIC (MRSA COL (NRS100)) [µg/mL] | MIC [2, 4] [µg/mL] | MIC (μg/mL) S. aureus [1, 5] [µg/mL] | MIC (μg/mL) E. coli ([2]; Table 1 protocol: serial 2-fold dilutions starting from 64 μg/ml) [µg/mL] | MIC (μg/mL) (COL) (MRSA COL (NRS100); [5]) [µg/mL]
1 | CCCCCCCCCCCCCC(=O)N(C)[C@@H]1C(=O)N[C@@H](C)C(=O)N[C@H](C(=O)O)Cc2ccc(OCCN)c(c2)-c2cc1ccc2OCCN [Compound 291] | 8 (≈ 11.3 µM) | 8 (≈ 11.3 µM) | 4 (≈ 5.63 µM) |  |  |  | 
2 | CCCCCCCCCCCCCC(=O)N[C@@H](CCCCN)C(=O)N(C)[C@@H]1C(=O)N[C@@H](C)C(=O)N[C@H](C(=O)O)Cc2ccc(OCCN)c(c2)-c2cc1ccc2OCCN [Compound 293] | 0.063 (≈ 0.0752 µM) | 0.063 (≈ 0.0752 µM) | 0.063 (≈ 0.0752 µM) |  |  |  | 
3 | CCCCc1ccc(-c2ccc(C(=O)N[C@@H](CCCCN)C(=O)N(C)[C@@H]3C(=O)N[C@@H](C)C(=O)N[C@H](C(=O)O)Cc4ccc(OCCN)c(c4)-c4cc3ccc4OCCN)cc2)cc1 [Compound 294] | 0.15 (≈ 0.174 µM) | 0.063 (≈ 0.0729 µM) | 0.063 (≈ 0.0729 µM) |  |  |  | 
4 | CCCCc1ccc(-c2ccc(C(=O)N[C@@H](CCCN)C(=O)N(C)[C@@H]3C(=O)N[C@@H](C)C(=O)N[C@H](C(=O)O)Cc4ccc(OCCN)c(c4)-c4cc3ccc4OCCN)cc2)cc1 [Compound 295] | 0.19 (≈ 0.224 µM) | 0.063 (≈ 0.0741 µM) | 0.063 (≈ 0.0741 µM) |  |  |  | 
5 | CCCCCCCCc1ccc(C(=O)N[C@@H](CCCN)C(=O)N(C)[C@@H]2C(=O)N[C@@H](C)C(=O)N[C@H](C(=O)O)Cc3ccc(OCCN)c(c3)-c3cc2ccc3OCCN)c(C)c1 [Compound 296] | 0.063 (≈ 0.0746 µM) | 0.063 (≈ 0.0746 µM) | 0.063 (≈ 0.0746 µM) |  |  |  | 
6 | CCCCCCCCc1ccc(C(=O)N[C@@H](CCCN)C(=O)N(C)[C@@H]2C(=O)N[C@@H](C)C(=O)N[C@H](C(=O)O)Cc3ccc(OCCN)c(c3)-c3cc2ccc3OCCN)c(F)c1 [Compound 297] | 0.38 (≈ 0.448 µM) | 0.063 (≈ 0.0743 µM) | 0.063 (≈ 0.0743 µM) |  |  |  | 
7 | CCCCCCCCCCCCCC(=O)N[C@@H](CN)C(=O)N(C)[C@@H]1C(=O)N[C@@H](C)C(=O)N[C@H](C(=O)O)Cc2ccc(OCCN)c(c2)-c2cc1ccc2OCCN [Compound 298] | 0.38 (≈ 0.477 µM) |  | 0.063 (≈ 0.0791 µM) | 0.031 (≈ 0.0389 µM) |  |  | 
8 | CCCCCCCCc1ccc(C(=O)N[C@@H](CN)C(=O)N(C)[C@@H]2C(=O)N[C@@H](C)C(=O)N[C@H](C(=O)O)Cc3ccc(OCCN)c(c3)-c3cc2ccc3OCCN)cc1 [Compound 300] | 0.5 (≈ 0.623 µM) |  | 0.13 (≈ 0.162 µM) | 0.023 (≈ 0.0287 µM) |  |  | 
9 | CCCCCCCCc1ccc(C(=O)N[C@@H](CCN)C(=O)N(C)[C@@H]2C(=O)N[C@@H](C)C(=O)N[C@H](C(=O)O)Cc3ccc(OCCN)c(c3)-c3cc2ccc3OCCN)c(C)c1 [Compound 302] | 0.11 (≈ 0.133 µM) |  | 0.039 (≈ 0.047 µM) | 0.0088 (≈ 0.0106 µM) |  |  | 
10 | CCCCCCCCCCCCCC(=O)N[C@@H](CCCN)C(=O)N(C)[C@@H]1C(=O)N[C@@H](C)C(=O)N[C@H](C(=O)O)Cc2ccc(OCCN)c(c2)-c2cc1ccc2OCCN [Compound 303] | 0.13 (≈ 0.158 µM) |  | 0.023 (≈ 0.0279 µM) | 0.023 (≈ 0.0279 µM) |  |  | 
11 | CCCCCCCCCCCC(=O)N[C@@H](CCN)C(=O)N(C)[C@@H]1C(=O)N[C@@H](C)C(=O)N[C@H](C(=O)O)Cc2ccc(OCCN)c(c2)-c2cc1ccc2OCCN [Compound 304] | 0.5 (≈ 0.639 µM) |  | 0.13 (≈ 0.166 µM) | 0.047 (≈ 0.0601 µM) |  |  | 
12 | CCCCCCCCCCC(=O)N[C@@H](CCN)C(=O)N(C)[C@@H]1C(=O)N[C@@H](C)C(=O)N[C@H](C(=O)O)Cc2ccc(OCCN)c(c2)-c2cc1ccc2OCCN [Compound 305] | 1 (≈ 1.3 µM) |  | 0.38 (≈ 0.495 µM) | 0.13 (≈ 0.169 µM) |  |  | 
13 | CCCCCCCCCC(=O)N[C@@H](CCN)C(=O)N(C)[C@@H]1C(=O)N[C@@H](C)C(=O)N[C@H](C(=O)O)Cc2ccc(OCCN)c(c2)-c2cc1ccc2OCCN [Compound 306] | 3 (≈ 3.98 µM) |  | 1 (≈ 1.33 µM) | 0.25 (≈ 0.332 µM) |  |  | 
14 | CCCCCCCCC(=O)N[C@@H](CCN)C(=O)N(C)[C@@H]1C(=O)N[C@@H](C)C(=O)N[C@H](C(=O)O)Cc2ccc(OCCN)c(c2)-c2cc1ccc2OCCN [Compound 307] | 4 (≈ 5.41 µM) |  | 3 (≈ 4.05 µM) | 1 (≈ 1.35 µM) |  |  | 
15 | CCCCCCCCCCCCCC(=O)N[C@@H](CC)C(=O)N(C)[C@@H]1C(=O)N[C@@H](C)C(=O)N[C@H](C(=O)O)Cc2ccc(OCCN)c(c2)-c2cc1ccc2OCCN [Compound 308] | 1 (≈ 1.26 µM) |  | 0.38 (≈ 0.478 µM) | 0.094 (≈ 0.118 µM) |  |  | 
16 | CCCCCCCCc1ccc(C(=O)N[C@@H](CO)C(=O)N(C)[C@@H]2C(=O)N[C@@H](C)C(=O)N[C@H](C(=O)O)Cc3ccc(OCCN)c(c3)-c3cc2ccc3OCCN)c(C)c1 [Compound 309] | 0.5 (≈ 0.612 µM) |  | 0.25 (≈ 0.306 µM) | 0.031 (≈ 0.0379 µM) |  |  | 
17 | C[C@H](NC(=O)[C@@H]1Cc2ccc(OCCN)c(c2)-c2cc(ccc2OCCN)[C@H](N(C)C(=O)[C@H](CCCCN)NC(=O)c2ccc(-c3ccc(Cl)cc3)cc2)C(=O)N[C@@H](C)C(=O)N1)B1O[C@@H]2C[C@@H]3C[C@@H](C3(C)C)[C@]2(C)O1 [Compound 310] | 0.5 (≈ 0.477 µM) | 0.19 (≈ 0.181 µM) | 0.094 (≈ 0.0897 µM) |  |  |  | 
18 | C[C@@H]1NC(=O)[C@@H](N(C)C(=O)[C@H](CCCCN)NC(=O)c2ccc(-c3ccc(Cl)cc3)cc2)c2ccc(OCCN)c(c2)-c2cc(ccc2OCCN)C[C@@H](C(=O)NCB(O)O)NC1=O [Compound 311] | 1.5 (≈ 1.67 µM) | 0.19 (≈ 0.211 µM) | 0.13 (≈ 0.145 µM) |  |  |  | 
19 | C[C@@H]1NC(=O)[C@@H](N(C)C(=O)[C@H](CCCCN)NC(=O)c2ccc(-c3ccc(Cl)cc3)cc2)c2ccc(OCCN)c(c2)-c2cc(ccc2O)C[C@@H](C(=O)O)NC1=O [Compound 312] | 24 (≈ 30 µM) | 3 (≈ 3.75 µM) | 3 (≈ 3.75 µM) |  |  |  | 
20 | C[C@H](NC(=O)[C@@H]1Cc2ccc(O)c(c2)-c2cc(ccc2OCCN)[C@H](N(C)C(=O)[C@H](CCCCN)NC(=O)c2ccc(-c3ccc(Cl)cc3)cc2)C(=O)N[C@@H](C)C(=O)N1)B1O[C@@H]2C[C@@H]3C[C@@H](C3(C)C)[C@]2(C)O1 [Compound 313] | 2 (≈ 1.99 µM) | 1 (≈ 0.996 µM) | 0.38 (≈ 0.378 µM) |  |  |  | 
21 | CCCCCCCCCCCCCC(=O)NC(CCCCN)C(=O)N(C)C1C(=O)NC(C)C(=O)NC(C(=O)NC(C)B2OC3CC4CC(C4(C)C)C3(C)O2)Cc2ccc(OCCN)c(c2)-c2cc1ccc2OCCN (stereo not drawn) [Compound 314] |  |  |  |  | 0.063 (≈ 0.0604 µM) | 0.094 (≈ 0.0901 µM) | 0.012 (≈ 0.0115 µM)
22 | CCCCCCCCCCCCCC(=O)N(C)[C@@H]1C(=O)N[C@@H](C)C(=O)N[C@H](C(=O)N[C@@H](C)B2O[C@@H]3C[C@@H]4C[C@@H](C4(C)C)[C@]3(C)O2)Cc2ccc(OCCN)c(c2)-c2cc1ccc2OCCN [Compound 315] | 1 (≈ 1.09 µM) | 1 (≈ 1.09 µM) | 0.5 (≈ 0.546 µM) |  |  |  | 
23 | CCCCc1ccc(-c2ccc(C(=O)N[C@@H](CCCCN)C(=O)N(C)[C@@H]3C(=O)N[C@@H](C)C(=O)N[C@H](C(=O)N[C@@H](C)B4O[C@@H]5C[C@@H]6C[C@@H](C6(C)C)[C@]5(C)O4)Cc4ccc(OCCN)c(c4)-c4cc3ccc4OCCN)cc2)cc1 [Compound 316] | 0.13 (≈ 0.122 µM) | 0.094 (≈ 0.0879 µM) | 0.031 (≈ 0.029 µM) |  |  |  | 
24 | CCCCc1ccc(-c2ccc(C(=O)N[C@@H](CN)C(=O)N(C)[C@@H]3C(=O)N[C@@H](C)C(=O)N[C@H](C(=O)N[C@@H](C)B4O[C@@H]5C[C@@H]6C[C@@H](C6(C)C)[C@]5(C)O4)Cc4ccc(OCCN)c(c4)-c4cc3ccc4OCCN)cc2)cc1 [Compound 317] | 0.13 (≈ 0.127 µM) | 0.13 (≈ 0.127 µM) | 0.063 (≈ 0.0613 µM) |  |  |  | 
25 | CCCCCCCCc1ccc(C(=O)N[C@@H](CCCN)C(=O)N(C)[C@@H]2C(=O)N[C@@H](C)C(=O)N[C@H](C(=O)N[C@@H](C)B3O[C@@H]4C[C@@H]5C[C@@H](C5(C)C)[C@]4(C)O3)Cc3ccc(OC)c(c3)-c3cc2ccc3OC)cc1 [Compound 319] | 2 (≈ 2.05 µM) | 0.75 (≈ 0.768 µM) | 1 (≈ 1.02 µM) |  |  |  | 
